System: NHBE cells
Experiment: Biolog metabolic array: substrate use by NHBE cells with or without CA09 infection
Assay type: cell-based, human
Details: for Substrate use, 590 nm absorbance normalized to zero hour, 0 hr: Biolog PMM2, 0 hr; for Substrate use, 590 nm absorbance normalized to zero hour, 1 hr: Biolog PMM2, 1 hr; for Substrate use, 590 nm absorbance normalized to zero hour, 5 hr: Biolog PMM2, 5 hr; for Substrate use, 590 nm absorbance normalized to zero hour, 7 hr: Biolog PMM2, 7 hr
[1] = Control (uninfected) NHBE cells
[2] = Virus (CA09-infected NHBE cells, MOI 1)
[3] = Virus: CA09-infected NHBE cells, MOI 1, Biolog PMM2
[4] = Virus (CA09, MOI 1) infected NHBE cells
[5] = Virus (CA09-infected, MOI 1) NHBE cells

| SMILES | 590 nm absorbance normalized to zero hour (substrate use), 0 hr [1] | 590 nm absorbance normalized to zero hour (substrate use), 1 hr [1] | 590 nm absorbance normalized to zero hour (substrate use), 2 hr [1] | 590 nm absorbance normalized to zero hour (substrate use), 3 hr [1] | 590 nm absorbance normalized to zero hour (substrate use), 4 hr [1] | 590 nm absorbance normalized to zero hour (substrate use), 6 hr [1] | 590 nm absorbance normalized to zero hour (substrate use), 8 hr [1] | 590 nm absorbance normalized to zero hour (substrate use), 9 hr [1] | 590 nm absorbance normalized to zero hour (substrate use), 10 hr [1] | 590 nm absorbance normalized to zero hour (substrate use), 11 hr [1] | Substrate use, 590 nm absorbance normalized to zero hour, 0 hr [1] | Substrate use, 590 nm absorbance normalized to zero hour, 1 hr [1] | Substrate use, 590 nm absorbance normalized to zero hour, 5 hr [1] | Substrate use, 590 nm absorbance normalized to zero hour, 7 hr [1] | 590 nm absorbance normalized to zero hour (substrate use), 0 hr [2] | 590 nm absorbance normalized to zero hour (substrate use), 1 hr [2] | 590 nm absorbance normalized to zero hour (substrate use), 2 hr [2] | 590 nm absorbance normalized to zero hour (substrate use), 3 hr [2] | 590 nm absorbance normalized to zero hour (substrate use), 4 hr [2] | 590 nm absorbance normalized to zero hour (substrate use), 5 hr [2] | also measured |
| --- | --- | --- | --- | --- | --- | --- | --- | --- | --- | --- | --- | --- | --- | --- | --- | --- | --- | --- | --- | --- | --- |
| O=C(CO)[C@@H](O)[C@H](O)[C@@H](O)CO [L-Sorbose] | 1.00 | 1.57 | 2.05 | 2.28 | 2.38 | 4.12 | 2.81 | 2.80 | 3.02 | 2.98 | 1.00 | 1.57 | 2.79 | 2.84 | 1.00 | 0.18 | 0.23 | 0.26 | 0.28 | 0.32 | 590 nm absorbance normalized to zero hour (substrate use), 6 hr [2]: 0.34; 590 nm absorbance normalized to zero hour (substrate use), 7 hr [2]: 0.37; 590 nm absorbance normalized to zero hour (substrate use), 8 hr [2]: 0.38; 590 nm absorbance normalized to zero hour (substrate use), 9 hr [2]: 0.41; 590 nm absorbance normalized to zero hour (substrate use), 10 hr [2]: 0.41; 590 nm absorbance normalized to zero hour (substrate use), 11 hr [2]: 0.48; 590 nm absorbance normalized to zero hour (substrate use), 0 hr [3]: 1.00; 590 nm absorbance normalized to zero hour (substrate use), 1 hr [3]: 0.18; 590 nm absorbance normalized to zero hour (substrate use), 2 hr [3]: 0.23; 590 nm absorbance normalized to zero hour (substrate use), 3 hr [3]: 0.26; 590 nm absorbance normalized to zero hour (substrate use), 4 hr [3]: 0.28; 590 nm absorbance normalized to zero hour (substrate use), 5 hr [3]: 0.32; 590 nm absorbance normalized to zero hour (substrate use), 6 hr [3]: 0.34; 590 nm absorbance normalized to zero hour (substrate use), 7 hr [3]: 0.37; 590 nm absorbance normalized to zero hour (substrate use), 8 hr [3]: 0.38; 590 nm absorbance normalized to zero hour (substrate use), 9 hr [3]: 0.41; 590 nm absorbance normalized to zero hour (substrate use), 10 hr [3]: 0.41; 590 nm absorbance normalized to zero hour (substrate use), 11 hr [3]: 0.48 |
| OC[C@@H](O)[C@@H](O[C@@H]1O[C@H](CO)[C@H](O)[C@H](O)[C@H]1O)[C@H](O)[C@@H](O)CO [Lactitol] | – | 0.19 | 0.26 | 0.31 | 0.33 | 0.40 | 0.47 | 0.50 | 0.55 | 0.62 | – | 0.19 | 0.39 | 0.44 | – | – | – | – | – | – | Substrate use, 590 nm absorbance normalized to zero hour, 1 hr [4]: 1.61; Substrate use, 590 nm absorbance normalized to zero hour, 5 hr [4]: 3.16; Substrate use, 590 nm absorbance normalized to zero hour, 7 hr [4]: 3.55; 590 nm absorbance normalized to zero hour (substrate use), 1 hr [5]: 1.61; 590 nm absorbance normalized to zero hour (substrate use), 2 hr [5]: 2.20; 590 nm absorbance normalized to zero hour (substrate use), 3 hr [5]: 2.54; 590 nm absorbance normalized to zero hour (substrate use), 4 hr [5]: 2.73; 590 nm absorbance normalized to zero hour (substrate use), 6 hr [5]: 3.38; 590 nm absorbance normalized to zero hour (substrate use), 8 hr [5]: 3.76; 590 nm absorbance normalized to zero hour (substrate use), 9 hr [5]: 4.11; 590 nm absorbance normalized to zero hour (substrate use), 10 hr [5]: 4.31; 590 nm absorbance normalized to zero hour (substrate use), 11 hr [5]: 4.66 |
| OC[C@@H](O)[C@@H](O[C@H]1O[C@H](CO)[C@@H](O)[C@H](O)[C@H]1O)[C@H](O)[C@@H](O)CO [Maltitol] | 1.00 | 1.76 | 2.36 | 2.82 | 3.07 | 3.52 | 4.77 | 5.77 | 5.24 | 5.98 | 1.00 | 1.76 | 3.80 | 4.49 | 1.00 | 1.05 | 1.03 | 1.37 | 0.98 | 0.88 | 590 nm absorbance normalized to zero hour (substrate use), 6 hr [2]: 0.89; 590 nm absorbance normalized to zero hour (substrate use), 7 hr [2]: 0.92; 590 nm absorbance normalized to zero hour (substrate use), 8 hr [2]: 0.96; 590 nm absorbance normalized to zero hour (substrate use), 9 hr [2]: 1.01; 590 nm absorbance normalized to zero hour (substrate use), 10 hr [2]: 1.08; 590 nm absorbance normalized to zero hour (substrate use), 11 hr [2]: 1.16; 590 nm absorbance normalized to zero hour (substrate use), 0 hr [3]: 1.00; 590 nm absorbance normalized to zero hour (substrate use), 1 hr [3]: 1.05; 590 nm absorbance normalized to zero hour (substrate use), 2 hr [3]: 1.03; 590 nm absorbance normalized to zero hour (substrate use), 3 hr [3]: 1.37; 590 nm absorbance normalized to zero hour (substrate use), 4 hr [3]: 0.98; 590 nm absorbance normalized to zero hour (substrate use), 5 hr [3]: 0.88; 590 nm absorbance normalized to zero hour (substrate use), 6 hr [3]: 0.89; 590 nm absorbance normalized to zero hour (substrate use), 7 hr [3]: 0.92; 590 nm absorbance normalized to zero hour (substrate use), 8 hr [3]: 0.96; 590 nm absorbance normalized to zero hour (substrate use), 9 hr [3]: 1.01; 590 nm absorbance normalized to zero hour (substrate use), 10 hr [3]: 1.08; 590 nm absorbance normalized to zero hour (substrate use), 11 hr [3]: 1.16 |
